In patent publication US9561231B2 (AbbVie Inc., priority 2012, dated 2017):
Where two headings read alike, the source gives them in different places. Marks after values point to notes of the source that are not given here.

How the values were obtained:
[1] = molecular target: T1, first (BD1: amino acids K57-E168) bromodomain of BRD4 (Homo sapiens, UniProt O60885); experiment: TR-FRET bromodomain binding assay, BRD4 BD1; settings: Ki calculated from IC50, probe Kd and probe concentration, read-out: TR-FRET Binding Ki: BRD4 (BDI_K57-E168)
T1 construct: His-tagged first (BD1: amino acids K57-E168)
Method in brief: (§1)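 His-tagged BRD4 BD1 (K57-E168) or BD2 ([…]) displacing an Alexa647-labelled BET-inhibitor probe in 20 mM sodium phosphate pH 6.0, 50 mM NaCl, 1 mM EDTA, 0.01% Triton X-100, 1 mM DTT.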

[2] = molecular target: T2, second (BD2: amino acids E352-E168) bromodomain of BRD4 (Homo sapiens, UniProt O60885); experiment: TR-FRET bromodomain binding assay, BRD4 BD2; settings: Ki calculated from IC50, probe Kd and probe concentration, read-out: TR-FRET Binding Ki: BRD4 (BDII_E352-M457)
T2 construct: protocol
Method in brief: as §1

[3] = tested on: breast cancer cell line MX-1; experiment: MX-1 cell line proliferation assay (3-day); assay type: cell-based; settings: Homo sapiens, MX1, MX-1 cells, Cell Titer Glo, read-out: Cellular proliferation: EC50
Method in brief: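 EC50 derived by sigmoidal fitting of Cell Titer Glo signal relative to DMSO controls. Compound, 3 μM down to 0.0001 μM final in 3-fold steps, was added to adhered MX-1 cells (5000/well, RPMI + 10% FBS) for a 3-day incubation at 37° C.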

[4] = tested on: LPS induced IL-6 production; experiment: LPS (lipopolysaccharide) induced IL-6 production mouse assay; settings: 1 h before LPS 2.5 mg/kg i.p., serum IL-6 2 h after LPS, p<0.05
[5] = tested on: OPM-2 human multiple myeloma cancer xenograft; experiment: Xenograft tumor growth inhibition assay: OPM-2; assay type: in vivo, SCID-beige female mice; settings: for % TGI (tumor growth inhibition): QDx21; for % TGD (tumor growth delay): QDx21, endpoint 1000 mm^3
[6] = tested on: MX-1 human breast cancer xenograft; experiment: Xenograft tumor growth inhibition assay: MX-1; settings: for % TGD (tumor growth delay): QDx21, endpoint 1000 mm^3; for % TGI (tumor growth inhibition): QDx21, tumor volumes study day 27
[7] = TR-FRET assay protocol (A-G, compound concentration range)
[8] = TR-FRET assay protocol (D, E or G) per compound

| Ki [1, 7] | Ki [2, 7] | EC50 ([3]; 72 h incubation) | SMILES | Inhibition of LPS induced IL-6 production, % inhibition ([4]; 3 mg/kg oral) | further results |
| --- | --- | --- | --- | --- | --- |
| 47.6 nM | 17 nM | 238 nM | Cn1cc(-c2cc(NS(C)(=O)=O)ccc2Oc2ccccc2Cl)ccc1=O [Example 235, N-[4-(2-chlorophenoxy)-3-(1-methyl-6-oxo-1,6-dihydropyridin-3-yl)phenyl]methanesulfonamide] | – | Inhibition of LPS induced IL-6 production, % inhibition ([4]; 30 mg/kg oral): 58.7 @ 30 mg/kg % |
| 34.6 nM | 27.1 nM | 181 nM | CCS(=O)(=O)Nc1ccc(Oc2ccc(F)cc2F)c(-c2ccc(=O)n(C)c2)c1 [Example 241, N-[4-(2,4-difluorophenoxy)-3-(1-methyl-6-oxo-1,6-dihydropyridin-3-yl)phenyl]ethanesulfonamide] | 73.9 @ 3 mg/kg % | – |
| 18.1 nM | 31.6 nM | 173 nM | Cc1cc(Oc2ccccc2)c(-c2ccc(=O)n(C)c2)cc1NS(C)(=O)=O [Example 257, N-[2-methyl-5-(1-methyl-6-oxo-1,6-dihydropyridin-3-yl)-4-phenoxyphenyl]methanesulfonamide] | – | Inhibition of LPS induced IL-6 production, % inhibition ([4]; 30 mg/kg oral): 49.7 @ 30 mg/kg % |
| 25.6 nM | 10.9 nM | 138 nM | COc1cc(=O)n(C)cc1-c1cc(NS(C)(=O)=O)ccc1Oc1ccc(F)cc1F [Example 270, N-[4-(2,4-difluorophenoxy)-3-(4-methoxy-1-methyl-6-oxo-1,6-dihydropyridin-3-yl)phenyl]methanesulfonamide] | 68.8 @ 3 mg/kg % | % TGI (tumor growth inhibition) ([5]; 3 mg/kg/day PO): 42* %; % TGD (tumor growth delay) ([5]; 3 mg/kg/day PO): 17%; % TGI (tumor growth inhibition) ([5]; 10 mg/kg/day PO): 60%; % TGD (tumor growth delay) ([5]; 10 mg/kg/day PO): 59** % |
| 9.76 nM | 1.55 nM | 47.3 nM | CCS(=O)(=O)Nc1ccc(Oc2ccc(F)cc2F)c(-c2cn(C)c(=O)cc2OC)c1 [Example 271, N-[4-(2,4-difluorophenoxy)-3-(4-methoxy-1-methyl-6-oxo-1,6-dihydropyridin-3-yl)phenyl]ethanesulfonamide] | 76.9 @ 3 mg/kg % | % TGI (tumor growth inhibition) ([5]; 1 mg/kg/day PO): 66* %; % TGD (tumor growth delay) ([5]; 1 mg/kg/day PO): 51*** %; % TGI (tumor growth inhibition) ([5]; 3 mg/kg/day PO): 73* %; % TGD (tumor growth delay) ([5]; 3 mg/kg/day PO): 93*** % |
| – | – | – | CCOc1cc(=O)n(C)cc1-c1cc(NS(=O)(=O)CC)ccc1Oc1ccc(F)cc1F [Example 285, N-[4-(2,4-difluorophenoxy)-3-(4-ethoxy-1-methyl-6-oxo-1,6-dihydropyridin-3-yl)phenyl]ethanesulfonamide] | 84.0 @ 3 mg/kg % | % TGD (tumor growth delay) ([6]; 3 mg/kg/day PO): 140^d** %; % TGI (tumor growth inhibition) ([6]; 3 mg/kg/day PO): 84^d*** % |
| 4.97 nM | 1.73 nM | 45 nM | CCCOc1cc(=O)n(C)cc1-c1cc(NS(=O)(=O)CC)ccc1Oc1ccc(F)cc1F [Example 292, N-[4-(2,4-difluorophenoxy)-3-(1-methyl-6-oxo-4-propoxy-1,6-dihydropyridin-3-yl)phenyl]ethanesulfonamide] | 58.0 @ 3 mg/kg % | – |
| 37.1 nM | 5.99 nM | 115 nM | CCS(=O)(=O)Nc1ccc(Oc2ccc(F)cc2F)c(-c2cn(C)c(=O)cc2OCC(F)(F)F)c1 [Example 293, N-{4-(2,4-difluorophenoxy)-3-[1-methyl-6-oxo-4-(2,2,2-trifluoroethoxy)-1,6-dihydropyridin-3-yl]phenyl}ethanesulfonamide] | 71.0 @ 3 mg/kg % | % TGD (tumor growth delay) ([6]; 1 mg/kg/day PO): 11%; % TGI (tumor growth inhibition) ([6]; 1 mg/kg/day PO): 6%; % TGD (tumor growth delay) ([6]; 3 mg/kg/day PO): 42%; % TGI (tumor growth inhibition) ([6]; 3 mg/kg/day PO): 56* % |
| 95.3 nM | 15.1 nM | 239 nM | CCS(=O)(=O)Nc1ccc(Oc2ccc(F)cc2F)c(-c2cn(C)c(=O)cc2OCC2(C)CC2(F)F)c1 (stereo not drawn) [Example 335, N-[3-{4-[(2,2-difluoro-1-methylcyclopropyl)methoxy]-1-methyl-6-oxo-1,6-dihydropyridin-3-yl}-4-(2,4-difluorophenoxy)phenyl]ethanesulfonamide] | 50.9 @ 3 mg/kg % | – |
| 41.5 nM | 13 nM | 264 nM | CCS(=O)(=O)Nc1ccc(Oc2ccc(F)cc2F)c(-c2cn(C)c(=O)cc2-n2cccn2)c1 [Example 346, N-{4-(2,4-difluorophenoxy)-3-[1-methyl-6-oxo-4-(1H-pyrazol-1-yl)-1,6-dihydropyridin-3-yl]phenyl}ethanesulfonamide] | 48.6 @ 3 mg/kg % | – |
| 7.8 nM | 7.61 nM | 52.6 nM | CCOc1cc(=O)n(C)cc1-c1cc(NS(=O)(=O)CC)ccc1Oc1ccc(C#N)cc1 [Example 358, N-[4-(4-cyanophenoxy)-3-(4-ethoxy-1-methyl-6-oxo-1,6-dihydropyridin-3-yl)phenyl]ethanesulfonamide] | 60.5 @ 3 mg/kg % | – |
| 4.94 nM | 1.53 nM | 29.6 nM | CCNc1cc(=O)n(C)cc1-c1cc(NS(=O)(=O)CC)ccc1Oc1ccc(F)cc1F [Example 363, N-{4-(2,4-difluorophenoxy)-3-[4-(ethylamino)-1-methyl-6-oxo-1,6-dihydropyridin-3-yl]phenyl}ethanesulfonamide] | 42.7 @ 3 mg/kg % | – |
| 2.11 nM | 0.528 nM | 18.9 nM | CCS(=O)(=O)Nc1ccc(Oc2ccc(F)cc2F)c(-c2cn(C)c(=O)cc2OC2CCC2)c1 [Example 367, N-{3-[4-(cyclobutyloxy)-1-methyl-6-oxo-1,6-dihydropyridin-3-yl]-4-(2,4-difluorophenoxy)phenyl}ethanesulfonamide] | 80.0 @ 3 mg/kg % | – |
| 19.6 nM | 28.6 nM | 96.2 nM | CCOc1cc(=O)n(C)cc1-c1cc(S(=O)(=O)CC)ccc1OCC1CC1(F)F (stereo not drawn) [Example 368, 5-{2-[(2,2-difluorocyclopropyl)methoxy]-5-(ethylsulfonyl)phenyl}-4-ethoxy-1-methylpyridin-2(1H)-one] | 72.4 @ 3 mg/kg % | – |
| 5.29 nM | 2.42 nM | 28.1 nM | CCOc1cc(=O)n(C)cc1-c1cc(S(=O)(=O)C(C)C)ccc1Oc1ccc(F)cc1F [Example 369, 5-[2-(2,4-difluorophenoxy)-5-(propan-2-ylsulfonyl)phenyl]-4-ethoxy-1-methylpyridin-2(1H)-one] | 38.0 @ 3 mg/kg % | – |
| 8.73 nM | 2.29 nM | 40.9 nM | CCOc1cc(=O)n(C)cc1-c1cc(S(=O)(=O)C2CC2)ccc1Oc1ccc(F)cc1F [Example 371, 5-[5-(cyclopropylsulfonyl)-2-(2,4-difluorophenoxy)phenyl]-4-ethoxy-1-methylpyridin-2(1H)-one] | 57.6 @ 3 mg/kg % | – |
| – | – | – | CCOc1cc(=O)n(C)cc1-c1cc(S(=O)(=O)CC)ccc1Oc1ccc(F)cc1F [Example 375, 5-[2-(2,4-difluorophenoxy)-5-(ethylsulfonyl)phenyl]-4-ethoxy-1-methylpyridin-2(1H)-one] | 84.4 @ 3 mg/kg % | Ki [1, 8]: 12.9 nM; Ki [2, 8]: 3.22 nM; EC50 ([3]; 72 hours with compound): 40.2 nM |
| – | – | – | CCOc1cc(=O)n(C)cc1-c1cc(NS(=O)(=O)CC)ccc1Oc1ccc(OC(F)(F)F)cc1 [Example 387, N-{3-(4-ethoxy-1-methyl-6-oxo-1,6-dihydropyridin-3-yl)-4-[4-(trifluoromethoxy)phenoxy]phenyl}ethanesulfonamide] | 54.3 @ 3 mg/kg % | Ki [1, 8]: 69.1 nM; Ki [2, 8]: 7.87 nM; EC50 ([3]; 72 hours with compound): 61.8 nM |
| – | – | – | CCOc1cc(=O)n(C)cc1-c1cc(NS(=O)(=O)CC)ccc1Oc1ccc(Cl)cc1 [Example 400, N-[4-(4-chlorophenoxy)-3-(4-ethoxy-1-methyl-6-oxo-1,6-dihydropyridin-3-yl)phenyl]ethanesulfonamide] | 66.4 @ 3 mg/kg % | Ki [1, 8]: 7.21 nM; Ki [2, 8]: 1.81 nM; EC50 ([3]; 72 hours with compound): 18.1 nM |
